Tests used:
[1] = system: active caspases; assay: [125I]-M808 labeling of active caspases in rat tissue protein extracts; type: binding
Protocol: Tissues (rat liver, kidney, brain, thymus, mouse thymus) were either frozen or processed within 20 minutes of their removal. Rat tissues and cultured cells were homogenized in ice cold cell lysis buffer (50 mM Tris-Cl pH 7.5, 2 mM EDTA, 1% NP-40) supplemented with 5 mM DTT and Complete protease inhibitor cocktail (Roche). Thymi from mice injected with [^125I]-M808 were homogenized in lysis buffer supplemented with 25 μM of M808. Nuclear debris was removed by centrifugation at 13000 rpm for 10 min and the soluble fraction quantitated by Bradford assay (Bio-Rad). Caspase-3 like activity was determined with the fluorogenic substrate Ac-DEVD-AMC as described by Roy et al. (2001) Proc. Nat. Acad. Sci. USA 98: 6132-6137.
The determination of caspase activity by [^125I]-M808 labeling was performed by pre-incubating purified recombinant human caspase-3 with indicated amounts of caspase inhibitor (M791) or vehicle (DMSO), for 1 hour at 25° C. in ICE buffer III (50 mM Hepes-KOH pH 7.0, 0.1% CHAPS, 10% sucrose, 2 mM EDTA), supplemented with 5 mM DTT. [^125I]-M808 was added to a final concentration of 1.25 μM and incubated for 5 min at 25° C. Active caspases in tissue or cell extracts were labeled by incubating 60-80 μg of lysate with [^125I]-M808 for 15 minutes at 25° C. […]

[2] = target: T1, caspase-3 (Rattus norvegicus, UniProt P55213); assay: Saturation labeling of caspases in protein extracts of thymi from CLP-operated rats dosed with M867; type: binding; conditions: low specific activity probe, 80 μg rat thymus extract
T1 construct: endogenous in cells; host or cells: primary rat thymocytes (Sprague-Dawley), spontaneous apoptosis in culture
T1 sequence (P55213 29-175 limits assumed): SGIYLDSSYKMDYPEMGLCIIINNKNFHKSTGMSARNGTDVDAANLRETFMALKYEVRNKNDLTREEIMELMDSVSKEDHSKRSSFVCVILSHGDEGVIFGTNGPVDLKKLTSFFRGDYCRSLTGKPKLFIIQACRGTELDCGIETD
T1 sequence (P55213 176-277 limits assumed): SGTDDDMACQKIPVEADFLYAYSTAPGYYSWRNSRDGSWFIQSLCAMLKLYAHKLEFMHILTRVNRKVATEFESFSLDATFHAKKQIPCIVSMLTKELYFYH
Protocol: FIG. 7. Comparison of p17 caspase labeled with [^125I]-M808 for a short or a long incubation period. Septic rats were dosed intravenously with either vehicle or the indicated concentration of M867. Thymi were collected 24 hours post-CLP surgery. Western blot showing the appearance of cleaved p17 caspase-3. Partial caspase-3 labeling with high specific activity probe for 5 minutes. Saturated [^125I]-M808 labeling of active caspases in the same thymi extracts with low specific activity probe for 3 hours or 18 hours. During the long incubation period, M867 originally present on caspase-3 (seen from low or absent labeling) dissociates from the active site and is replaced by the irreversible active site probe [^125I]-M808. Displacement is essentially complete by 3 hours since no change in labeling intensity was observed between a 3 h and 18 h incubation period at 37° C.
Quantitation of total amount of active caspase can be determined by exposing protein extracts from either cultured cells (Jurkats, thymocytes) of CLP-derived rat thymi to low-specific activity [^125I]-M808 for long period of time. Briefly, 80 μg of rat thymus protein extracts from CLP-operated rats dosed with M867, were incubated for 3 hours or 18 hours with 1250 M808 (5 nM at 2000 Ci/mmole) and M808 (395 nM). […]

| Compound | effect on [125I]-M808 labeling when added to extract prior to probe ([1]; granzyme-B treated rat tissue extracts, FIG. 2A lanes 6-9) | recognition of active caspases in injured tissue extracts ([1]; HI neonatal rat brain, infarcted rat heart, septic rat thymi extracts) | incubation time sufficient to label all active caspase-3 quantitatively [2] [h] |
| --- | --- | --- | --- |
| COc1ccc(-c2nc(C)no2)cc1CC(=O)N[C@H](C(=O)N[C@@H](CC(=O)O)C(=O)CSCc1ccccc1)C(C)C [Example M791, (3S)-5-(benzylthio)-3-[(N-{[2-methoxy-5-(3-methyl-1,2,4-oxadiazol-5-yl)phenyl]acetyl}-L-valyl)amino]4-oxopentanoic acid] | No radiolabeling (lanes 6-8) or strongly reduced labeling (lane 9) | – | – |
| COc1ccc(I)cc1CC(=O)N[C@H](C(=O)NC(CC(=O)O)C(=O)CF)C(C)C (stereo partly drawn) [[^125I]-M808, 5-fluoro-3-({N-[(5-iodo-2-methoxyphenyl)acetyl]-L-valyl}amino)-4-oxopentanoic acid] | – | specifically recognizes active caspases in several types of injured tissues | 3 |
